# Test results from patent US10597388B2, “Pyridazinone herbicides” (FMC CORPORATION, priority 2014, dated 2020).
# Key:
# Format in all cases: in vivo
# kochia (Kochia scoparia) = test: Test C greenhouse herbicide test, postemergence
# Procedure, shortened: (§1)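 Seedlings are raised in pots of peat moss–vermiculite medium with starter nutrients, then receive postemergence test chemical at the 1- to 4-leaf stage. They are kept in the greenhouse 13 to 15 d and scored visually versus controls, 0 meaning no effect and 100 complete control.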
# [1] = system: oat, wild (wild oat, Avena fatua); test: Test C greenhouse herbicide test, postemergence
# Procedure, shortened: as §1
# [2] = system: pigweed (Amaranthus retroflexus); test: Test C greenhouse herbicide test, pre- and postemergence
# Procedure, shortened: (§2)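 Visual ratings on a 0 to 100 scale (0 = no effect, 100 = complete control) versus untreated controls, scored 13–15 d after treatment. Soil-applied preemergence to seeded loam/sand; foliar postemergence to 1- to 4-leaf plants (2–18 cm) in peat-vermiculite mix; compounds formulated in solvent plus surfactant.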
# [3] = system: crabgrass, large (large crabgrass, Digitaria sanguinalis); test: as above
# Procedure, shortened: as §2
# [4] = system: lambsquarters (Chenopodium album); test: as above
# Procedure, shortened: as §2
# [5] = system: johnsongrass (Sorghum halepense); test: as above
# Procedure, shortened: as §2
# [6] = system: waterhemp (common waterhemp, Amaranthus rudis); test: as above
# Procedure, shortened: as §2
# [7] = system: velvetleaf (Abutilon theophrasti); test: as above
# Procedure, shortened: as §2
# corn (Zea mays) = test: as above
# Procedure, shortened: as §2
# [8] = system: morningglory (Ipomoea coccinea); test: as above
# Procedure, shortened: as §2
# [9] = system: wheat (winter wheat, Triticum aestivum); test: as above
# Procedure, shortened: as §2
# [10] = system: foxtail, giant (giant foxtail, Setaria faberii); test: as above
# Procedure, shortened: as §2
# [11] = system: nutsedge, yellow (yellow nutsedge, Cyperus esculentus); test: as above
# Procedure, shortened: as §2
# [12] = system: blackgrass (Alopecurus myosuroides); test: as above
# Procedure, shortened: as §2
# [13] = system: oilseed rape (Brassica napus); test: as above
# Procedure, shortened: as §2
# [14] = system: barnyardgrass (Echinochloa crus-galli); test: as above
# Procedure, shortened: as §2
# [15] = Postemergence, 31 g ai/ha, scale 0 to 100 (0 no effect, 100 complete control)
# [16] = Postemergence, 62 g ai/ha, 0 to 100 scale (0 no effect, 100 complete control)
# [17] = Postemergence, 250 g ai/ha, scale 0 to 100, 0 no effect, 100 complete control, 13 to 15 d
# [18] = postemergence, 125 g ai/ha, scale 0 to 100, 0 no effect, 100 complete control
# [19] = Preemergence, 31 g ai/ha, scale 0 to 100, 0 is no effect, 100 is complete control
# [20] = Preemergence, 62 g ai/ha, scale 0 to 100, 0 is no effect, 100 is complete control
# [21] = Preemergence, 125 g ai/ha, scale 0 to 100, 0 is no effect, 100 is complete control
# [22] = Preemergence, 250 g ai/ha, scale 0 to 100 (0 no effect, 100 complete control)
structure (smiles),measurement,setting,value
CC(=O)Oc1c(C)nn(C)c(=O)c1-c1c(C)cc(C)c2ccccc12 [Compound 153],"Plant response rating, Kochia",kochia (Kochia scoparia); [15],40
same,Kochia plant response rating,kochia (Kochia scoparia); [16],70
same,"Plant response rating, Kochia",kochia (Kochia scoparia); [17],85
same,Kochia plant response rating,kochia (Kochia scoparia); [18],80
same,"Plant response rating, Oat, Wild",[1]; [15],90
same,"Oat, Wild plant response rating",[1]; [16],95
same,"Plant response rating, Oat, Wild",[1]; [17],95
same,"Oat, Wild plant response rating",[1]; [18],95
same,"Plant response rating, Pigweed",[2]; [15],85
same,Pigweed plant response rating,[2]; [16],75
same,"Plant response rating, Pigweed",[2]; [17],85
same,"Plant response rating, Pigweed",[2]; [19],100
same,"Plant response rating, Pigweed",[2]; [20],100
same,"Plant response rating, Pigweed",[2]; [21],100
same,Pigweed plant response rating,[2]; [22],100
same,Pigweed plant response rating,[2]; [18],85
same,"Plant response rating, Crabgrass, Large",[3]; [15],55
same,"Crabgrass, Large plant response rating",[3]; [16],50
same,"Plant response rating, Crabgrass, Large",[3]; [17],75
same,"Plant response rating, Crabgrass, Large",[3]; [19],80
same,"Plant response rating, Crabgrass, Large",[3]; [20],100
same,"Plant response rating, Crabgrass, Large",[3]; [21],98
same,"Crabgrass, Large plant response rating",[3]; [22],100
same,"Crabgrass, Large plant response rating",[3]; [18],50
same,"Plant response rating, Lambsquarters",[4]; [15],85
same,Lambsquarters plant response rating,[4]; [16],90
same,"Plant response rating, Lambsquarters",[4]; [17],95
same,"Plant response rating, Lambsquarters",[4]; [19],95
same,"Plant response rating, Lambsquarters",[4]; [20],100
same,"Plant response rating, Lambsquarters",[4]; [21],100
same,Lambsquarters plant response rating,[4]; [22],98
same,Lambsquarters plant response rating,[4]; [18],95
same,"Plant response rating, Johnsongrass",[5]; [15],10
same,Johnsongrass plant response rating,[5]; [16],5
same,"Plant response rating, Johnsongrass",[5]; [17],15
same,"Plant response rating, Johnsongrass",[5]; [19],25
same,"Plant response rating, Johnsongrass",[5]; [20],50
same,"Plant response rating, Johnsongrass",[5]; [21],65
same,Johnsongrass plant response rating,[5]; [22],70
same,Johnsongrass plant response rating,[5]; [18],10
same,"Plant response rating, Waterhemp",[6]; [15],70
same,Waterhemp plant response rating,[6]; [16],65
same,"Plant response rating, Waterhemp",[6]; [17],90
same,"Plant response rating, Waterhemp",[6]; [19],80
same,"Plant response rating, Waterhemp",[6]; [20],95
same,"Plant response rating, Waterhemp",[6]; [21],95
same,Waterhemp plant response rating,[6]; [22],100
same,Waterhemp plant response rating,[6]; [18],90
same,"Plant response rating, Velvetleaf",[7]; [15],85
same,Velvetleaf plant response rating,[7]; [16],85
same,"Plant response rating, Velvetleaf",[7]; [17],95
same,"Plant response rating, Velvetleaf",[7]; [19],85
same,"Plant response rating, Velvetleaf",[7]; [20],90
same,"Plant response rating, Velvetleaf",[7]; [21],95
same,Velvetleaf plant response rating,[7]; [22],90
same,Velvetleaf plant response rating,[7]; [18],90
same,"Plant response rating, Corn",corn (Zea mays); [15],20
same,Corn plant response rating,corn (Zea mays); [16],35
same,"Plant response rating, Corn",corn (Zea mays); [17],10
same,"Plant response rating, Corn",corn (Zea mays); [19],0
same,"Plant response rating, Corn",corn (Zea mays); [20],0
same,"Plant response rating, Corn",corn (Zea mays); [21],40
same,Corn plant response rating,corn (Zea mays); [22],65
same,Corn plant response rating,corn (Zea mays); [18],25
same,"Plant response rating, Morningglory",[8]; [15],98
same,Morningglory plant response rating,[8]; [16],100
same,"Plant response rating, Morningglory",[8]; [17],100
same,"Plant response rating, Morningglory",[8]; [19],95
same,"Plant response rating, Morningglory",[8]; [20],90
same,"Plant response rating, Morningglory",[8]; [21],98
same,Morningglory plant response rating,[8]; [22],98
same,Morningglory plant response rating,[8]; [18],98
same,"Plant response rating, Wheat",[9]; [15],15
same,Wheat plant response rating,[9]; [16],20
same,"Plant response rating, Wheat",[9]; [17],10
same,"Plant response rating, Wheat",[9]; [19],0
same,"Plant response rating, Wheat",[9]; [20],10
same,"Plant response rating, Wheat",[9]; [21],30
same,Wheat plant response rating,[9]; [22],50
same,Wheat plant response rating,[9]; [18],10
same,"Plant response rating, Foxtail, Giant",[10]; [15],80
same,"Foxtail, Giant plant response rating",[10]; [16],85
same,"Plant response rating, Foxtail, Giant",[10]; [17],95
same,"Plant response rating, Foxtail, Giant",[10]; [19],98
same,"Plant response rating, Foxtail, Giant",[10]; [20],100
same,"Plant response rating, Foxtail, Giant",[10]; [21],100
same,"Foxtail, Giant plant response rating",[10]; [22],100
same,"Foxtail, Giant plant response rating",[10]; [18],90
same,"Plant response rating, Nutsedge, Yellow",[11]; [15],85
same,"Nutsedge, Yellow plant response rating",[11]; [16],90
same,"Plant response rating, Nutsedge, Yellow",[11]; [17],90
same,"Plant response rating, Nutsedge, Yellow",[11]; [19],80
same,"Plant response rating, Nutsedge, Yellow",[11]; [20],85
same,"Plant response rating, Nutsedge, Yellow",[11]; [21],80
same,"Nutsedge, Yellow plant response rating",[11]; [22],95
same,"Nutsedge, Yellow plant response rating",[11]; [18],95
same,"Plant response rating, Blackgrass",[12]; [15],80
same,Blackgrass plant response rating,[12]; [16],85
same,"Plant response rating, Blackgrass",[12]; [17],90
same,"Plant response rating, Blackgrass",[12]; [19],90
same,"Plant response rating, Blackgrass",[12]; [20],90
same,"Plant response rating, Blackgrass",[12]; [21],95
same,Blackgrass plant response rating,[12]; [22],95
same,Blackgrass plant response rating,[12]; [18],90
same,"Plant response rating, Oilseed Rape",[13]; [15],90
same,Oilseed Rape plant response rating,[13]; [16],90
same,"Plant response rating, Oilseed Rape",[13]; [17],90
same,"Plant response rating, Oilseed Rape",[13]; [19],95
same,"Plant response rating, Oilseed Rape",[13]; [20],100
same,"Plant response rating, Oilseed Rape",[13]; [21],98
same,Oilseed Rape plant response rating,[13]; [22],100
same,Oilseed Rape plant response rating,[13]; [18],90
same,"Plant response rating, Barnyardgrass",[14]; [15],40
same,Barnyardgrass plant response rating,[14]; [16],60
same,"Plant response rating, Barnyardgrass","[14]; Postemergence, 125 g ai/ha, scale 0 to 100, 0 is no effect, 100 is complete control",70
same,"Plant response rating, Barnyardgrass",[14]; [17],90
same,"Plant response rating, Barnyardgrass",[14]; [19],85
same,"Plant response rating, Barnyardgrass",[14]; [20],100
same,"Plant response rating, Barnyardgrass",[14]; [21],100
same,Barnyardgrass plant response rating,[14]; [22],100
